Measured values reported in PMC10313368 (The Journal of Clinical Investigation, 2023).

Tested on: HUVECs
Assay: mRNA angiogenesis array (TaqMan Array qPCR) in HUVECs
Type: cell-based, human
Design: ANG,RNASE4, array raw value (Figure 8B, well A10) / GAPDH, array raw value (Figure 8B, well A2) / EDIL3, array raw value (Figure 8B, well B2) / FGF1, array raw value (Figure 8B, well B4) / TIMP2, array raw value (Figure 8B, well E10) / SEMA3F, array raw value (Figure 8B, well E6) / CEACAM1, array raw value (Figure 8B, well F2) / LYVE1, array raw value (Figure 8B, well F6): scale not given here
Procedure: Angiogenesis array. Total RNA was isolated from MIO-MI cells (8 hours) and HUVECs (16 […]
cDNA was prepared with QuantiTect® Reverse Transcription Kit (Qiagen, Cat# 205311). RT-qPCR assay was performed with pre-configured TaqMan Array 96-Well FAST Plate for human angiogenic gene expression (Applied Biosystems, Inc) following the manufacture’s protocol. Each plate contains pre-defined genes including 18S, GAPDH and HPRT1 endogenous controls.
TaqMan Array plates were prepared by loading on each well 5 μl of cDNA sample (30 ng) with nuclease-free water and 5 μl of TaqMan™ Fast Advanced Master Mix (Applied Biosystem, Cat# […]
4444554). The reaction was performed using the QuantStudio™ 3 Flex Real‐Time PCR System as follows: 2 minutes at 50°C (stage 1); 10 minutes at 95°C (stage 2); 15 seconds at 95°C and 1 minutes at 60°C for 40 cycles (stage 3). The data were analyzed by using HPRT1 as endogenous […]
The clustering heatmaps were produced with “pheatmap” library in R with scale = row and clustering method = complete.
HUVEC cells, Euclidean distance was used to quantify the difference in qPCR screening. The Euclidean distance was calculated using “dist” function from R’s default stat library that measures the distance between 2 vectors (i.e., total qPCR expression values in control and treatment). In […]

With Brc1ccc2c(-c3csc(-c4c[nH]c5c(Br)cccc45)n3)c[nH]c2c1 [32-134D, 4-(6-bromo-1H-indol-3-yl)-2-(7-bromo-1H-indol-3-yl)thiazole] the “LYVE1, array raw value (Figure 8B, well F6)” value (HUVEC, 1%O2+32-134D) was 34.6146, the “MDK, array raw value (Figure 8B, well B11)” value (HUVEC, 1%O2+32-134D) was 23.8862 and the “MMP2, array raw value (Figure 8B, well A9)” value (HUVEC, 1%O2+32-134D) was 21.2904. The “NRP1, array raw value (Figure 8B, well H10)” value (HUVEC, 1%O2+32-134D) was 28.4453, the “NRP2, array raw value (Figure 8B, well F9)” value (HUVEC, 1%O2+32-134D) was 25.1088 and the “PDGFB, array raw value (Figure 8B, well C1)” value (HUVEC, 1%O2+32-134D) was 28.0672. The “PECAM1, array raw value (Figure 8B, well F5)” value (HUVEC, 1%O2+32-134D) was 23.24, the “PF4, array raw value (Figure 8B, well D8)” value (HUVEC, 1%O2+32-134D) was 38.4479 and the “PLG, array raw value (Figure 8B, well A6)” value (HUVEC, 1%O2+32-134D) was 36.8052. The “PROX1, array raw value (Figure 8B, well H12)” value (HUVEC, 1%O2+32-134D) was 31.6234, the “PTN, array raw value (Figure 8B, well C2)” value (HUVEC, 1%O2+32-134D) was 36.9532 and the “S1PR1, array raw value (Figure 8B, well H11)” value (HUVEC, 1%O2+32-134D) was 25.2945. The “SEMA3F, array raw value (Figure 8B, well E6)” value (HUVEC, 1%O2+32-134D) was 31.8531, the “SERPINB5, array raw value (Figure 8B, well E4)” value (HUVEC, 1%O2+32-134D) was 36.9759 and the “SERPINC1, array raw value (Figure 8B, well A7)” value (HUVEC, 1%O2+32-134D) was 34.8884. The “SERPINF1, array raw value (Figure 8B, well D7)” value (HUVEC, 1%O2+32-134D) was 37.5691, the “TEK, array raw value (Figure 8B, well E7)” value (HUVEC, 1%O2+32-134D) was 27.2772 and the “TGFA, array raw value (Figure 8B, well C4)” value (HUVEC, 1%O2+32-134D) was 29.7382. For the same molecule, the “TGFB1, array raw value (Figure 8B, well C5)” value (HUVEC, 1%O2+32-134D) was 24.01, the “THBS1, array raw value (Figure 8B, well C12)” value (HUVEC, 1%O2+32-134D) was 23.1291 and the “TIE1, array raw value (Figure 8B, well E8)” value (HUVEC, 1%O2+32-134D) was 30.7653. For the same molecule, the “TIMP2, array raw value (Figure 8B, well E10)” value (HUVEC, 1%O2+32-134D) was 25.4299, the “TIMP3, array raw value (Figure 8B, well E11)” value (HUVEC, 1%O2+32-134D) was 25.8838 and the “TNFSF15, array raw value (Figure 8B, well D1)” value (HUVEC, 1%O2+32-134D) was 25.7168. For the same molecule, the “TNMD, array raw value (Figure 8B, well E9)” value (HUVEC, 1%O2+32-134D) was 37.1045, the “TYMP, array raw value (Figure 8B, well B12)” value (HUVEC, 1%O2+32-134D) was 39.1978 and the “VASH1, array raw value (Figure 8B, well D9)” value (HUVEC, 1%O2+32-134D) was 30.8647. The “VEGFA, array raw value (Figure 8B, well C7)” value (HUVEC, 1%O2+32-134D) was 30.4927, the “VEGFB, array raw value (Figure 8B, well C8)” value (HUVEC, 1%O2+32-134D) was 27.5522 and the “VEGFC, array raw value (Figure 8B, well C9)” value (HUVEC, 1%O2+32-134D) was 27.3225. For the same molecule, the “ANGPTL4 mRNA (angiogenesis array, Figure 8C)” value (HUVEC, Hy+32-134D, Normal = 1) was 35.2355, the “COL4A1 mRNA (angiogenesis array, Figure 8C)” value (HUVEC, Hy+32-134D, Normal = 1) was 3.543 and the “COL4A2 mRNA (angiogenesis array, Figure 8C)” value (HUVEC, Hy+32-134D, Normal = 1) was 2.168. The “CTGF mRNA (angiogenesis array, Figure 8C)” value (HUVEC, Hy+32-134D, Normal = 1) was 3.12, the “EPHB2 mRNA (angiogenesis array, Figure 8C)” value (HUVEC, Hy+32-134D, Normal = 1) was 2.119 and the “HSPG2 mRNA (angiogenesis array, Figure 8C)” value (HUVEC, Hy+32-134D, Normal = 1) was 1.339. The “ITGB3 mRNA (angiogenesis array, Figure 8C)” value (HUVEC, Hy+32-134D, Normal = 1) was 3.6621, the “MMP2 mRNA (angiogenesis array, Figure 8C)” value (HUVEC, Hy+32-134D, Normal = 1) was 3.052 and the “PDGFB mRNA (angiogenesis array, Figure 8C)” value (HUVEC, Hy+32-134D, Normal = 1) was 2.63. The “PROX1 mRNA (angiogenesis array, Figure 8C)” value (HUVEC, Hy+32-134D, Normal = 1) was 2.021, the “TGFA mRNA (angiogenesis array, Figure 8C)” value (HUVEC, Hy+32-134D, Normal = 1) was 2.2277 and the “TGFB1 mRNA (angiogenesis array, Figure 8C)” value (HUVEC, Hy+32-134D, Normal = 1) was 1.578. The “TNMD mRNA (angiogenesis array, Figure 8C)” value (HUVEC, Hy+32-134D, Normal = 1) was 1.388, the “VEGFA mRNA (angiogenesis array, Figure 8C)” value (HUVEC, Hy+32-134D, Normal = 1) was 4.067 and the “VEGFC mRNA (angiogenesis array, Figure 8C)” value (HUVEC, Hy+32-134D, Normal = 1) was 3.879. For the same molecule, the “reduction in the Euclidean distance between control and hypoxic cell angiogenic gene expression” value (HUVECs, from 209 to 35) was 83%.
